The IC50 is the concentration needed to halve the response being measured. Low readings indicate greater potency, high ones weaker potency. For orientation: Kd means the free concentration of one partner at which half of the binding sites on the other are occupied at equilibrium, for simple one-to-one binding.

In one data set the target is T1, PSMA (PSMA+ LNCaP cells) (Homo sapiens, UniProt Q04609).
T1 construct: host or cells: LNCaP cells
The data set is described as follows: Competitive cell binding assay against 68Ga-labeled PSMA-10 radioligand. The following applies: radioligand [68Ga]Ga-PSMA-10 0.75 nM, metal-free ligand. The method, then:
(§1) PSMA^+ LNCaP cells (ATCC CRL-1740) were cultured in RPMI medium supplemented with 10% fetal calf serum and 2 mmol/L L-glutamine (all from PAA). Cells were grown at 37° C. in humidified air with 5% CO2 and were harvested using trypsin-ethylenediaminetetraacetic acid (trypsin-EDTA; 0.25% trypsin, 0.02% EDTA, Invitrogen).
The competitive cell binding assay and internalization experiments were performed as described previously (4). Briefly, the cells (10^5 per well) were incubated with a 0.75 nM solution of ^68Ga-labeled radioligand [Glu-urea-Lys(Ahx)]2-HBED-CC (PSMA-10, precursor ordered from ABX, Radeberg, Germany) in the presence of 12 different concentrations of analyte (0-5000 nM, 100 μL/well). After incubation, the mixture was removed and the wells were washed 3 times with PBS using a multiscreen vacuum manifold (Millipore, Billerica, Mass.). Cell-bound radioactivity was measured using a gamma counter (Packard Cobra II, GMI, Minn., USA). The 50% inhibitory concentration (IC50) values were calculated by fitting the data using a nonlinear regression algorithm (GraphPad Software).

The subject of a further data set is PSMA+ LNCaP cells. Description: Internalization experiments (surface-bound and internalized fractions). Type of data set: cell-based. As to conditions: 30 nM radiolabeled compound, 45 min. The method, then: as §1
For internalization experiments, 10^5 cells per well were seeded in poly-L-lysine coated 24-well cell culture plates 24 h before incubation. After washing, the cells were incubated with 30 nM of the radiolabeled compound for 45 min at 37° C. and at 4° C., respectively. Cellular uptake was terminated by washing 3 times with 1 mL of ice-cold PBS. To remove surface-bound radioactivity, cells were incubated twice with 0.5 mL glycine-HCl in PBS (50 mM, pH=2.8) for 5 min. The cells were washed with 1 mL of ice-cold PBS and lysed using 0.3 N NaOH (0.5 mL). The surface-bound and the internalized fractions were measured in a gamma counter. The cell uptake was calculated as percent of the initially added radioactivity bound to 10^5 cells [% ID/10^5 cells].

The target in the next data set is PSMA (Homo sapiens, UniProt Q04609). The following applies: radioligand of the competitive binding assay; cited from earlier work.
Sequence of PSMA (Q04609 whole entry, species assumed): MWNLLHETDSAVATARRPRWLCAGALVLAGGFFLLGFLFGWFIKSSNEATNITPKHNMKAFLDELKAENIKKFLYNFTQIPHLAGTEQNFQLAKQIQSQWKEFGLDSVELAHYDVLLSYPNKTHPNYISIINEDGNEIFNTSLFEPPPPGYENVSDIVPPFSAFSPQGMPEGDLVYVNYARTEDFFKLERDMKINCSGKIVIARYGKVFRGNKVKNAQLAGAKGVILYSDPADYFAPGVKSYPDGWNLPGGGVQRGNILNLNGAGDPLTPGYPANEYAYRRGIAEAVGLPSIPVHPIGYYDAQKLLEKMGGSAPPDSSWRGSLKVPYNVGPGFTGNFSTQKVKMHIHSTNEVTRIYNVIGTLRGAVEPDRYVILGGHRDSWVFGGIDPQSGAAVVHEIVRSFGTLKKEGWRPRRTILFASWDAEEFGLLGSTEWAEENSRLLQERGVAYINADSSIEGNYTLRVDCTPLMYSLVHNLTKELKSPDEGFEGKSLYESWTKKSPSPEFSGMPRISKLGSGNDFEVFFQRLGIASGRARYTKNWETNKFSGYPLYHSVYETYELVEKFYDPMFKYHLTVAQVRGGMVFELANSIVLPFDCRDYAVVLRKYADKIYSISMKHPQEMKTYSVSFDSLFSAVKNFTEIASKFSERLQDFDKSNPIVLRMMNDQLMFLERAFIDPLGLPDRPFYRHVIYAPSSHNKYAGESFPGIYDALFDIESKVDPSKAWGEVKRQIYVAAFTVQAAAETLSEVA
Data set [1] is described as follows: Biodistribution (organ distribution) of 68Ga-labeled compounds in LNCaP-tumor bearing mice. The following applies: 1 h p.i. The data set is classed as in vivo, BALB/c nu/nu mice. The method, then: The precursor peptides [1 nmol in HEPES buffer (580 mg/ml), 40 μL] were added to 40 μL [^68Ga]Ga^3+ eluate (˜40 MBq). The pH was adjusted to 3.8 using 30% NaOH and 10% NaOH, respectively. The reaction mixture was incubated at 98° C. for 10 minutes. The radiochemical yield (RCY) was determined by HPLC.
For the experimental tumor models 5×10^6 cells of LNCaP (in 50% Matrigel; Becton Dickinson, Heidelberg, Germany) were subcutaneously inoculated into the right trunk of 7- to 8-week-old male BALB/c nu/nu mice (Charles River). The tumors were allowed to grow until approximately 1 cm^3 in size. The ^68Ga-labeled compounds were injected into a tail vein (1-2 MBq; 60 pmol). At 1 h after injection the animals were sacrificed. Organs of interest were dissected, blotted dry, and weighed. The radioactivity was measured using a gamma counter and calculated as % ID/g. All animal experiments complied with the current laws of the Federal Republic of Germany.

T1 sequence (Q04609 whole entry): as the sequence (Q04609 whole entry, species assumed) above

Take `CC1(C)C(/C=C/C2=C(Oc3ccc(S(=O)(=O)O)cc3)C(=C/C=C3/N(CCCCS(=O)(=O)O)c4ccc(S(=O)(=O)O)cc4C3(C)C)/CCC2)=[N+](CCCCCC(=O)NCCCC[C@H](NC(=O)CN2CCN(CC(=O)O)CCN(CC(=O)O)CCN(CC(=O)O)CC2)C(=O)NC[C@H]2CC[C@H](C(=O)N[C@@H](Cc3ccc4ccccc4c3)C(=O)NCCCC[C@H](NC(=O)N[C@@H](CCC(=O)O)C(=O)O)C(=O)O)CC2)c2ccc(S(=O)(=O)[O-])cc21` (stereo in doubt) [Glu-urea-Lys-2-Nal-Chx-Lys(IRDye800CW)-DOTA]: the IC50 on PSMA (PSMA+ LNCaP cells) amounted to 15.9 ± 5.46 nM. In the data set on PSMA+ LNCaP cells, the “Specific cell surface bound” value is listed as 25.51 ± 9.73 % ID/10^5 cells and the Specific internalized turned out to be 27.64 ± 12.80 % ID/10^5 cells.

Turning to “[Glu-urea-Lys(Ahx)]2-HBED-CC [[^68Ga]Ga -PSMA-10]”, the Kd on PSMA was 2.1 nM.

Turning to “^68Ga-Glu-urea-Lys-2-Nal-Chx-Lys(IRDye800CW)-DOTA”, in data set [1] (in words), the “Kidney uptake in comparison to the reference” value was “significantly reduced” and the “Tumor uptake in comparison to the reference” value is listed as “comparable”. In data set [1] (tail vein, 60 pmol, n = 3), the “Organ distribution, Blood (Mean)” value was 1.14 % ID/g; the “Organ distribution, Brain (Mean)” value is 0.07 % ID/g; the “Organ distribution, Heart (Mean)” value came to 0.51 % ID/g; the “Organ distribution, Intestine (Mean)” value is listed as 0.43 % ID/g. In data set [1] (tail vein, 60 pmol, n = 3), the “Organ distribution, Kidney (Mean)” value is 65.64 % ID/g; the “Organ distribution, Liver (Mean)” value is given as 0.95 % ID/g; the “Organ distribution, Lung (Mean)” value came to 1.47 % ID/g; the “Organ distribution, Muscle (Mean)” value was 0.34 % ID/g. Moreover, the “Organ distribution, Spleen (Mean)” value in data set [1] (tail vein, 60 pmol, n = 3) turned out to be 2.82 % ID/g. Besides, the “Organ distribution, Tumor (Mean)” value in data set [1] (LNCaP tumor, tail vein, 60 pmol, n = 3) is 4.13 % ID/g.

The values above are taken from patent US11638765B2, “Double-labeled probe for molecular imaging and use thereof” (Deutsches Krebsforschungszentrum, priority 2017, dated 2023).
